Source: paper PMC12090178, “Exploring the Potential of Homologous Recombination Protein PALB2 in Synthetic Lethal Combinations” (ACS Chemical Biology, 2025)
Where a SMILES comes first, the peptide text is derived from it. Where no end group is shown, it is not given here. The star is where a group is joined. Azidoacetyl = [N-]=[N+]=NCC(=O)*

Columns and labels:
[1] = biological target: T1, PALB2 C-terminal domain (PALB2C) (Homo sapiens, UniProt Q86YC2); experiment: Direct fluorescence polarization of labelled BRCA2 peptides; assay type: binding; details: for Kd: direct FP, PALB2C source Hi5 insect cells, labelled peptide 10 nM, PALB2C serially diluted from 4.4 μM, 20 mM HEPES, 100 mM NaCl, 1 mM DTT, 1 mM EDTA, 0.01% IGEPAL CA-630, 20 min RT, read at 25 °C, N = 3-20
T1 construct: C terminal part of Palb2 (aa 835-1186); His tag (C); 3C protease site; host or cells: Hi5 insect cells (virus produced and amplified in Sf9)
T1 sequence (Q86YC2 835-1186): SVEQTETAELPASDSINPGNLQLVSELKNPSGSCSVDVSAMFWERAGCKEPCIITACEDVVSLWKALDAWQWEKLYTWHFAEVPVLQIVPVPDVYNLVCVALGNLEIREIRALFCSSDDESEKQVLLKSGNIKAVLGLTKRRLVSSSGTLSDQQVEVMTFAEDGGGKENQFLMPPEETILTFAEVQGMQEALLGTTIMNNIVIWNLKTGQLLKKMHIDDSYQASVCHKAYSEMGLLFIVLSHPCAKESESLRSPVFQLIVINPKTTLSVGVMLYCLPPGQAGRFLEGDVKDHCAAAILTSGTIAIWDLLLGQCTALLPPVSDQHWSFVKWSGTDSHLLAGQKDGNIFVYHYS
Method: FLU-GG-[…] (Peptide Protein Research Ltd., Fareham, UK) was dissolved in DMSO at 1 μM. PALB2C (22 μM, in 20 mM HEPES, 100 mM NaCl, 1 mM DTT, 1 mM EDTA) was diluted to a final concentration of 4.4 μM (same buffer supplemented with 0.01% (v/v) IGEPAL CA-630). The protein was serially diluted and fluorescent peptide was added to a final concentration of 10 nM. After incubation in the dark at RT for 20 min, fluorescence polarization was measured (ex: 485:20, em: 535:25, 25 °C). KD was obtained by fitting the signal to a binding model using the python lmfit package with the nonlinear least-squares method.[51]
9 Fluorescent polarization assay
9.1.1 Insect cell expression
PALB2-C was synthesized by the EPFL protein production facility0F1. In short; the virus was produced and amplified in Sf9 cells. C-terminal His-Tagged 3C-PALB2C was grown in 5 L o f Hi5 cells and harvested after 3 days. Pellet was frozen, defrosted and resuspended in 200 mL of wash buffer, supplemented to 5 % glycerol (v/v), 50 μL benzonase, and 2 protease inhibitor tablets. The mixture was clarified with a French press for a total of 4 cycles and centrifu g e d a t 32 kcfg for 1 h. The supernatant was decanted, supplemented with imidazole to a final concentration of 25 mM and added to 5 mL of Ni-NTA bead s. The b ead s were in cub ated with […]
The beads were washed with 40 column volumes (CV) with wash buffer (500 mM NaCl, 20 mM HEPES, pH 7.5), 10 CV with wash buffer and 50 mM imid az o le . The protein was eluted with 6 CV of elution buffer (500 mM NaCl, 20 mM HEPES, 300 mM imidazole, pH 7.5) to a total volume of 38 mL. The elute was concentrated to 1 mL and injected onto a pre-equilibrated Superdex 200 10/300GL column (250 mM NaCl, 10 mM HEPES, 5 mM DTT, 1 mM EDTA, pH […]
A total volume of 950 μL PALBC was received at a concentration of 1 mg/mL (equals 22 μM) in the superdex buffer. This corresponds to a yield of 0.19 mg/L of Hi5 cells. […]
Concentration was measured on a NanoDrop 2000. The concentration was determined to be […]

[2] = system: HEK293 PALB2 IKZF3d/IKZF3d knock-in cells; experiment: Cell viability assay (WST-1); assay type: cell-based; details: homozygous KI cells pretreated with 10 μM Pom, then DNA damaging drug, 5 days cotreatment, WST1

Row | Molecule | Kd [1] | synergistic toxicity with PALB2 depletion [2] | further results
1 | CC[C@H](C)[C@H](NC(=O)[C@H](CCC(=O)O)NC(=O)[C@H](Cc1ccccc1)NC(=O)[C@H](Cc1ccccc1)NC(=O)[C@@H](NC(=O)CNC(=O)CNC(=O)c1ccc2c(c1)C(=O)OC21c2ccc(O)cc2Oc2cc(O)ccc21)[C@@H](C)O)C(=O)N[C@@H](Cc1ccccc1)C(=O)N[C@@H](CCCCN)C(=O)N[C@H](C(=O)N[C@@H](CCCNC(=N)N)C(=O)N[C@@H](CS)C(=O)N[C@@H](CC(N)=O)C(=O)N[C@@H](CCCCN)C(=O)N[C@@H](C)C(=O)N[C@@H](CC(=O)O)C(=O)N[C@@H](CC(C)C)C(=O)NCC(=O)N1CCC[C@H]1C(=O)N[C@H](C(=O)N[C@@H](CO)C(=O)N[C@@H](CC(C)C)C(=O)N[C@@H](CC(N)=O)C(=O)N[C@@H](Cc1c[nH]c2ccccc12)C(=O)N[C@@H](Cc1ccccc1)C(=O)N[C@@H](CCC(=O)O)C(=O)N[C@@H](CCC(=O)O)C(=O)N[C@@H](CC(C)C)C(=O)N[C@@H](CO)C(=O)N[C@@H](CO)C(=O)N[C@@H](CCC(=O)O)C(=O)N[C@@H](C)C(N)=O)[C@@H](C)CC)[C@@H](C)O [FAM-GG-BRCA(10-39)] (HELM PEPTIDE1{[O=C1OC2(c3ccc(O)cc3Oc3cc(O)ccc32)c2ccc(C(=O)[*:2])cc21].G.G.T.F.F.E.I.F.K.T.R.C.N.K.A.D.L.G.P.I.S.L.N.W.F.E.E.L.S.S.E.A.[am]}$$$$V2.0; N-terminus and C-terminus assumed) | – | – | gain in binding affinity from residues 12-21 ([1]; FAM-GG-BRCA(10-39) compared with FAM-GG-BRCA(21-39)): 6–10 fold
2 | FLU-GG-KADLGPISLNWFEELSSEA [FAM-GG-BRCA(21-39), fluorescein-labelled BRCA2(21-39) peptide, Peptide Protein Research Ltd; FP probe] | 630 nM | – | –
3 | CC[C@@]1(O)C(=O)OCc2c1cc1n(c2=O)Cc2cc3ccccc3nc2-1 [CPT, camptothecin] | – | noticeable synergistic toxicity | –
4 | O=C(c1cc(Cc2n[nH]c(=O)c3ccccc23)ccc1F)N1CCN(C(=O)C2CC2)CC1 [olaparib] | – | noticeable synergistic toxicity | –
5 | Cy5-DBCO-GG-BRCA(21-39): Cy5-modified peptide: P38 modified with 2-azidoacetic acid and Cy5-DBCO ({Cy5‑DBCO-Azidoacetyl}-GGKADLGPISLNWFEELSSEA; UniProt P51587 21-39, looked up, fragment) | 64 nM | – | –
